Measured values taken from ChEMBL document CHEMBL4130588, “Ubiquitin-Specific Inhibitors for the Treatment of Cancers, Autoimmune, and Infectious Diseases” (ACS Med Chem Lett, 2017).

Assays:
[1] = Inhibition of recombinant human His6-tagged USP28-5 (1 to 1077 residues) using Ub-Rh110 as substrate pretreated for 30 mins followed by substrate addition measured after 20 mins by fluorescence assay
[2] = biological target: T1, Ubiquitin carboxyl-terminal hydrolase 25 (Homo sapiens, UniProt Q9UHP3); test: Inhibition of recombinant human His6-tagged USP25 expressed in baculovirus infected Sf21 insect cells using Ub-Rh110 as substrate pretreated for 30 mins followed by substrate addition measured after 45 mins by fluorescence assay
T1 sequence (Q9UHP3 whole entry): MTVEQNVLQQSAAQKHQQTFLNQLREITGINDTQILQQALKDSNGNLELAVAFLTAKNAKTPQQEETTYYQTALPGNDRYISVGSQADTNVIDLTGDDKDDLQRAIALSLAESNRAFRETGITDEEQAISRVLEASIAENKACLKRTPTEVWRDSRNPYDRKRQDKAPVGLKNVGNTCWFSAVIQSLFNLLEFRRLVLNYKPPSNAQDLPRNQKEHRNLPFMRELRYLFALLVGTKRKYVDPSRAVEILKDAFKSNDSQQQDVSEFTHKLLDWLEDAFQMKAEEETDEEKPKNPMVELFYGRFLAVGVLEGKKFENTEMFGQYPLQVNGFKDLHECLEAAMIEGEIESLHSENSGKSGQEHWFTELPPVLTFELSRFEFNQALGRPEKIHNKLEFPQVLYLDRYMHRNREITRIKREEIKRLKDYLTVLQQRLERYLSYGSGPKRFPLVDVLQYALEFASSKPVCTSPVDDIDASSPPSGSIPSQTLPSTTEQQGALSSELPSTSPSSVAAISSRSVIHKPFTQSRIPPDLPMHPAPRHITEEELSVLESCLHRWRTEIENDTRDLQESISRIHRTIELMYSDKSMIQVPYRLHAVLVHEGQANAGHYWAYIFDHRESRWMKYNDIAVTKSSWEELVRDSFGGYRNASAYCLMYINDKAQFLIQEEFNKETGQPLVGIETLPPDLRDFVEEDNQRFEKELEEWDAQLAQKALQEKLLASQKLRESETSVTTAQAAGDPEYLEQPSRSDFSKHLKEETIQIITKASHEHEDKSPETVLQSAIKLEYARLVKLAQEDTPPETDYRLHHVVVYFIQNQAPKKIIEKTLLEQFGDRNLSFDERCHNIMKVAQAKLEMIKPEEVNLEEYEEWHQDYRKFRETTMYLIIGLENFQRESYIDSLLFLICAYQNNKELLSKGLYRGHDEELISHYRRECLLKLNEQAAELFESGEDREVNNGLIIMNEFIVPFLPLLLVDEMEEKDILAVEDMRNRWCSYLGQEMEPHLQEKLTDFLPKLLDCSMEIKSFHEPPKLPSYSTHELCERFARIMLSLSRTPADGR

Cc1cnc2c(N)c(C(=O)NCCc3cc(F)c(N4CCNCC4)cc3F)sc2n1
IC50 [1]: 200 to 2000 nM
IC50 [2]: 2000 to 10000 nM

Cc1cnc2c(N)c(C(=O)NC[C@H](C)c3ccc(N4CC5CCC(C4)N5)c(F)c3)sc2n1
IC50 [1]: 200 to 2000 nM
IC50 [2]: 2000 to 10000 nM

Cc1cnc2c(N)c(C(=O)NCCc3ccc(N4CCNCC4)c(Cl)c3)sc2n1
IC50 [1]: 200 to 2000 nM

Cc1cnc2c(N)c(C(=O)NC[C@@H](C)c3ccc(N4CC5CCC(C4)N5)c(F)c3)sc2n1
IC50 [1]: 200 to 2000 nM
IC50 [2]: 2000 to 10000 nM

Cc1cnc2c(N)c(C(=O)NCCc3ccc(N4CC5CCC(C4)N5)c(F)c3)sc2n1
IC50 [1]: < 200 nM
IC50 [2]: < 200 nM

Cc1cnc2c(N)c(C(=O)NCCc3ccc(N4CC5CCC(C4)N5)c(Cl)c3)sc2n1
IC50 [1]: < 200 nM

Cc1cnc2c(N)c(C(=O)NCCc3cc(F)c(N4CC5CCC(C4)N5)cc3F)sc2n1
IC50 [1]: < 200 nM
IC50 [2]: 200 to 2000 nM

Cc1cnc2c(N)c(C(=O)NCCc3ccc(N4CCNCC4)cc3)sc2n1
IC50 [1]: 200 to 2000 nM
